Data reported in the supplement of paper PMC10307832.

How the values were obtained:
Experiment in all cases: relative viability (nuclei count vs DMSO), 5 days (fraction); higher = more cells survive
[1] = compound: C1COCCN1C2=NC(=NC3=C2OC4=C3C=CC=N4)C5=CC(=CC=C5)NC(=O)C6=CN=C(C=C6)N + N=C(N)NC(=N)NCCc1ccccc1 [Phenformin] (partner 250 µM)
How it was run: (§1)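 Relative viability divides the nuclei count in treated wells by that in vehicle wells. Lung cancer cell lines were seeded in 1536-well plates, dosed by pin tool the next day, and fixed and stained after 5 days in one step with final 0.05% Triton X-100, 1% formaldehyde and 1 ug/ml Hoechst. Dosing was a single drug or a fixed anchor-drug dose plus five library-drug doses (not always all listed) in √10 steps, and values are medians of duplicate plates imaged at 4×.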

Entinostat + Tozasertib = compound: Nc1ccccc1NC(=O)c1ccc(CNC(=O)OCc2cccnc2)cc1 [Entinostat] + Cc1cc(Nc2cc(N3CCN(C)CC3)nc(Sc3ccc(NC(=O)C4CC4)cc3)n2)n[nH]1 [Tozasertib] (partner 0.1 µM)
How it was run: as §1

SGI-1776 + Crizotinib = compound: CN1CCC(CNc2ccc3ncc(-c4cccc(OC(F)(F)F)c4)n3n2)CC1 [SGI-1776] + C[C@@H](Oc1cc(-c2cnn(C3CCNCC3)c2)cnc1N)c1c(Cl)ccc(F)c1Cl [Crizotinib] (partner 1 µM)
How it was run: as §1

SGI-1776 + Phenformin = compound: CN1CCC(CNc2ccc3ncc(-c4cccc(OC(F)(F)F)c4)n3n2)CC1 [SGI-1776] + N=C(N)NC(=N)NCCc1ccccc1 [Phenformin] (partner 250 µM)
How it was run: as §1

## BEN
[1]; first compound 0.02 µM
  relative viability: 0.278
[1]; first compound 0.06325 µM
  relative viability: 0.263
[1]; first compound 0.2 µM
  relative viability: 0.269
[1]; first compound 0.6325 µM
  relative viability: 0.253
[1]; first compound 2 µM
  relative viability: 0.318
Entinostat + Tozasertib; first compound 0.02 µM
  relative viability: 0.476
Entinostat + Tozasertib; first compound 0.06325 µM
  relative viability: 0.478
Entinostat + Tozasertib; first compound 0.2 µM
  relative viability: 0.443
Entinostat + Tozasertib; first compound 0.6325 µM
  relative viability: 0.356
Entinostat + Tozasertib; first compound 2 µM
  relative viability: 0.401
SGI-1776 + Crizotinib; first compound 0.08 µM
  relative viability: 0.799
SGI-1776 + Crizotinib; first compound 0.8 µM
  relative viability: 0.851
SGI-1776 + Crizotinib; first compound 2.53 µM
  relative viability: 0.844
SGI-1776 + Crizotinib; first compound 8 µM
  relative viability: 0.628
SGI-1776 + Phenformin; first compound 0.08 µM
  relative viability: 0.282
SGI-1776 + Phenformin; first compound 0.8 µM
  relative viability: 0.269
SGI-1776 + Phenformin; first compound 2.53 µM
  relative viability: 0.303
SGI-1776 + Phenformin; first compound 8 µM
  relative viability: 0.306

## EMC-BAC-2
[1]; first compound 0.02 µM
  relative viability: 0.543
[1]; first compound 0.06325 µM
  relative viability: 0.56
[1]; first compound 0.2 µM
  relative viability: 0.451
[1]; first compound 0.6325 µM
  relative viability: 0.469
[1]; first compound 2 µM
  relative viability: 0.304
Entinostat + Tozasertib; first compound 0.02 µM
  relative viability: 0.302
Entinostat + Tozasertib; first compound 0.06325 µM
  relative viability: 0.254
Entinostat + Tozasertib; first compound 0.2 µM
  relative viability: 0.228
Entinostat + Tozasertib; first compound 0.6325 µM
  relative viability: 0.17
Entinostat + Tozasertib; first compound 2 µM
  relative viability: 0.229
SGI-1776 + Crizotinib; first compound 0.08 µM
  relative viability: 0.838
SGI-1776 + Crizotinib; first compound 0.8 µM
  relative viability: 0.7
SGI-1776 + Crizotinib; first compound 2.53 µM
  relative viability: 0.701
SGI-1776 + Crizotinib; first compound 8 µM
  relative viability: 0.461
SGI-1776 + Phenformin; first compound 0.08 µM
  relative viability: 0.517
SGI-1776 + Phenformin; first compound 0.8 µM
  relative viability: 0.475
SGI-1776 + Phenformin; first compound 2.53 µM
  relative viability: 0.469
SGI-1776 + Phenformin; first compound 8 µM
  relative viability: 0.419

## NCI-H650
[1]; first compound 0.02 µM
  relative viability: 0.453
[1]; first compound 0.06325 µM
  relative viability: 0.469
[1]; first compound 0.2 µM
  relative viability: 0.417
[1]; first compound 0.6325 µM
  relative viability: 0.457
[1]; first compound 2 µM
  relative viability: 0.431
Entinostat + Tozasertib; first compound 0.02 µM
  relative viability: 0.739
Entinostat + Tozasertib; first compound 0.06325 µM
  relative viability: 0.652
Entinostat + Tozasertib; first compound 0.2 µM
  relative viability: 0.555
Entinostat + Tozasertib; first compound 0.6325 µM
  relative viability: 0.482
Entinostat + Tozasertib; first compound 2 µM
  relative viability: 0.212
SGI-1776 + Crizotinib; first compound 0.08 µM
  relative viability: 0.764
SGI-1776 + Crizotinib; first compound 0.8 µM
  relative viability: 0.704
SGI-1776 + Crizotinib; first compound 2.53 µM
  relative viability: 0.382
SGI-1776 + Crizotinib; first compound 8 µM
  relative viability: 0.37
SGI-1776 + Phenformin; first compound 0.08 µM
  relative viability: 0.521
SGI-1776 + Phenformin; first compound 0.8 µM
  relative viability: 0.438
SGI-1776 + Phenformin; first compound 2.53 µM
  relative viability: 0.435
SGI-1776 + Phenformin; first compound 8 µM
  relative viability: 0.368

## LU99A
[1]; first compound 0.02 µM
  relative viability: 0.845
[1]; first compound 0.06325 µM
  relative viability: 0.876
[1]; first compound 0.2 µM
  relative viability: 0.78
[1]; first compound 0.6325 µM
  relative viability: 0.371
[1]; first compound 2 µM
  relative viability: 0.255
Entinostat + Tozasertib; first compound 0.02 µM
  relative viability: 0.281
Entinostat + Tozasertib; first compound 0.06325 µM
  relative viability: 0.294
Entinostat + Tozasertib; first compound 0.2 µM
  relative viability: 0.292
Entinostat + Tozasertib; first compound 0.6325 µM
  relative viability: 0.239
Entinostat + Tozasertib; first compound 2 µM
  relative viability: 0.228
SGI-1776 + Crizotinib; first compound 0.08 µM
  relative viability: 0.621
SGI-1776 + Crizotinib; first compound 0.8 µM
  relative viability: 0.529
SGI-1776 + Crizotinib; first compound 2.53 µM
  relative viability: 0.549
SGI-1776 + Crizotinib; first compound 8 µM
  relative viability: 0.288
SGI-1776 + Phenformin; first compound 0.08 µM
  relative viability: 0.816
SGI-1776 + Phenformin; first compound 0.8 µM
  relative viability: 0.712
SGI-1776 + Phenformin; first compound 2.53 µM
  relative viability: 0.915
SGI-1776 + Phenformin; first compound 8 µM
  relative viability: 0.783

## NCI-H2347
[1]; first compound 0.02 µM
  relative viability: 0.356
[1]; first compound 0.06325 µM
  relative viability: 0.369
[1]; first compound 0.2 µM
  relative viability: 0.308
[1]; first compound 0.6325 µM
  relative viability: 0.449
[1]; first compound 2 µM
  relative viability: 0.277
Entinostat + Tozasertib; first compound 0.02 µM
  relative viability: 0.355
Entinostat + Tozasertib; first compound 0.06325 µM
  relative viability: 0.382
Entinostat + Tozasertib; first compound 0.2 µM
  relative viability: 0.345
Entinostat + Tozasertib; first compound 0.6325 µM
  relative viability: 0.175
Entinostat + Tozasertib; first compound 2 µM
  relative viability: 0.18
SGI-1776 + Crizotinib; first compound 0.08 µM
  relative viability: 0.687
SGI-1776 + Crizotinib; first compound 0.8 µM
  relative viability: 0.637
SGI-1776 + Crizotinib; first compound 2.53 µM
  relative viability: 0.772
SGI-1776 + Crizotinib; first compound 8 µM
  relative viability: 0.511
SGI-1776 + Phenformin; first compound 0.08 µM
  relative viability: 0.652
SGI-1776 + Phenformin; first compound 0.8 µM
  relative viability: 0.44
SGI-1776 + Phenformin; first compound 2.53 µM
  relative viability: 0.333
SGI-1776 + Phenformin; first compound 8 µM
  relative viability: 0.396
